Test results taken from patent publication US11026426B2, “Oxadiazole and phenol derivatives as antibacterial and/or herbicidal agents” (NORTHERN ILLINOIS RESEARCH FOUNDATION, priority 2017, dated 2021).
Read-outs that look alike come from different tables or passages of the source.

Experiments:
Type in all cases: cell-based
Escherichia coli = assay: Antibacterial assay zone of inhibition Ec
[1] = test system: Burkholderia thailandensis
Micrococcus luteus = assay: Antibacterial assay zone of inhibition Ml
Pseudomonas aeruginosa = assay: Antibacterial assay zone of inhibition Pa
[2] = test system: Corynebacterium pseudodiphtheriae; assay: Antibacterial assay zone of inhibition Cp
Mycobacterium smegmatis = assay: Antibacterial assay zone of inhibition Ms
Corynebacterium xerosis = assay: Antibacterial assay zone of inhibition Cx
Bacillus cereus = assay: Antibacterial assay zone of inhibition Bc
Klebsiella pneumonia = assay: Antibacterial assay zone of inhibition Kp

Row | SMILES | Antibacterial Ec zone of inhibition (Escherichia coli; 0.1 mM) | Antibacterial Ec zone of inhibition (Escherichia coli; 0.5 mM) | Antibacterial Ml zone of inhibition (Micrococcus luteus; 0.1 mM) [millimeters] | Antibacterial Ml zone of inhibition (Micrococcus luteus; 0.5 mM) [millimeters] | Antibacterial Ml zone of inhibition (Micrococcus luteus; 1 mM) [millimeters] | Antibacterial Pa zone of inhibition (Pseudomonas aeruginosa; 0.1 mM) [millimeters] | Antibacterial Pa zone of inhibition (Pseudomonas aeruginosa; 0.5 mM) [millimeters] | Antibacterial Pa zone of inhibition (Pseudomonas aeruginosa; 1 mM) [millimeters] | Antibacterial Cp zone of inhibition ([2]; 0.1 mM) [millimeters] | Antibacterial Cp zone of inhibition ([2]; 0.5 mM) [millimeters] | Antibacterial Cp zone of inhibition ([2]; 1 mM) [millimeters] | Antibacterial Ms zone of inhibition (Mycobacterium smegmatis; 0.1 mM) [millimeters] | Antibacterial Ms zone of inhibition (Mycobacterium smegmatis; 0.5 mM) [millimeters] | Antibacterial Ms zone of inhibition (Mycobacterium smegmatis; 1 mM) [millimeters] | Antibacterial Cx zone of inhibition (Corynebacterium xerosis; 0.1 mM) [millimeters] | Antibacterial Cx zone of inhibition (Corynebacterium xerosis; 0.5 mM) [millimeters] | Antibacterial Cx zone of inhibition (Corynebacterium xerosis; 1 mM) [millimeters] | Antibacterial Bc zone of inhibition (Bacillus cereus; 0.1 mM) [millimeters] | Antibacterial Bc zone of inhibition (Bacillus cereus; 0.5 mM) [millimeters] | Antibacterial Bc zone of inhibition (Bacillus cereus; 1 mM) [millimeters] | also measured
1 | CC(C)(C)c1ccc(OCc2nnc(-c3nc4ccccc4s3)o2)cc1 [HGN-836] | 0 NT millimeters | 0 NT millimeters | 0 | 0 | 0 | 0 | 0 | 0 | 0 | 0 | 0 | 0 | 0 | 0 | 0 | 0 | 11 | 0 | 0 | 13 | Antibacterial Bt zone of inhibition ([1]; 0.1 mM): 0 15 18 millimeters; Antibacterial Bt zone of inhibition ([1]; 0.5 mM): 0 15 18 millimeters; Antibacterial Bt zone of inhibition ([1]; 1 mM): 0 15 18 millimeters; Antibacterial Kp zone of inhibition (Klebsiella pneumonia; 0.1 mM): 0 millimeters; Antibacterial Kp zone of inhibition (Klebsiella pneumonia; 0.5 mM): 0 millimeters; Antibacterial Kp zone of inhibition (Klebsiella pneumonia; 1 mM): 7 millimeters
2 | Cc1ccc(OCc2nnc(-c3nc4ccccc4s3)o2)cc1 [HGN-825] | 0 millimeters | 0 millimeters | 0 | 0 | 11 | 0 | 0 | 0 | 0 | 0 | 0 | 0 | 13 | 18 | 0 | 0 | 0 | 0 | 0 | 11.5 | Antibacterial Ec zone of inhibition (Escherichia coli; 1 mM): 0 millimeters; Antibacterial Bt zone of inhibition [1]: 0 millimeters; Antibacterial Kp zone of inhibition (Klebsiella pneumonia; 0.1 mM): 0 millimeters; Antibacterial Kp zone of inhibition (Klebsiella pneumonia; 0.5 mM): 0 millimeters; Antibacterial Kp zone of inhibition (Klebsiella pneumonia; 1 mM): 0 millimeters
3 | c1ccc(OCc2nnc(-c3nc4ccccc4s3)o2)cc1 [HGN-840] | 0 millimeters | 0 millimeters | 0 | 0 | 0 | 0 | 0 | 0 | 0 | 12 | 19 | 0 | 0 | 0 | 0 | 0 | 0 | 0 | 0 | 14.5 | Antibacterial Ec zone of inhibition (Escherichia coli; 1 mM): 0 millimeters; Antibacterial Bt zone of inhibition [1]: 0 14 17.5 millimeters; Antibacterial Kp zone of inhibition (Klebsiella pneumonia; 0.1 mM): 0 millimeters; Antibacterial Kp zone of inhibition (Klebsiella pneumonia; 0.5 mM): 0 millimeters; Antibacterial Kp zone of inhibition (Klebsiella pneumonia; 1 mM): 16.5 millimeters
4 | Clc1cccc(OCc2nnc(-c3nc4ccccc4s3)o2)c1 [HGN-835] | 0 millimeters | 0 millimeters | 0 | 0 | 14 | 0 | 0 | 0 | 0 | 0 | 0 | 0 | 0 | 0 | 0 | 0 | 0 | 0 | 14 | 20 | Antibacterial Ec zone of inhibition (Escherichia coli; 1 mM): 0 millimeters; Antibacterial Bt zone of inhibition ([1]; 0.1 mM): 0 12.5 18 millimeters; Antibacterial Bt zone of inhibition ([1]; 0.5 mM): 0 12.5 18 millimeters; Antibacterial Bt zone of inhibition ([1]; 1 mM): 0 12.5 18 millimeters; Antibacterial Kp zone of inhibition (Klebsiella pneumonia; 0.1 mM): 0 millimeters; Antibacterial Kp zone of inhibition (Klebsiella pneumonia; 0.5 mM): 14 millimeters; Antibacterial Kp zone of inhibition (Klebsiella pneumonia; 1 mM): 18 millimeters
5 | Cc1cccc(OCc2nnc(-c3nc4ccccc4s3)o2)c1 [HGN-837] | 0 millimeters | 10 millimeters | 0 | 6 | 10 | 0 | 0 | 0 | 0 | 0 | 0 | 0 | 0 | 0 | 0 | 11 | 17 | 0 | 13 | 19 | Antibacterial Ec zone of inhibition (Escherichia coli; 1 mM): 17 millimeters; Antibacterial Bt zone of inhibition [1]: 0 13 19.5 millimeters; Antibacterial Kp zone of inhibition (Klebsiella pneumonia; 0.1 mM): 0 millimeters; Antibacterial Kp zone of inhibition (Klebsiella pneumonia; 0.5 mM): 0 millimeters; Antibacterial Kp zone of inhibition (Klebsiella pneumonia; 1 mM): 0 millimeters
6 | Clc1ccc(OCc2nnc(-c3nc4ccccc4s3)o2)cc1Cl [HGN-834] | 0 millimeters | 0 millimeters | 0 | 0 | 0 | 0 | 0 | 0 | 0 | 0 | 0 | 0 | 0 | 0 | 0 | 0 | 0 | 0 | 11 | 18 | Antibacterial Ec zone of inhibition (Escherichia coli; 1 mM): 0 millimeters; Antibacterial Bt zone of inhibition ([1]; 0.1 mM): 0 millimeters; Antibacterial Bt zone of inhibition ([1]; 0.5 mM): 0 millimeters; Antibacterial Bt zone of inhibition ([1]; 1 mM): 0 millimeters; Antibacterial Kp zone of inhibition (Klebsiella pneumonia; 0.1 mM): 0 millimeters; Antibacterial Kp zone of inhibition (Klebsiella pneumonia; 0.5 mM): 0 millimeters; Antibacterial Kp zone of inhibition (Klebsiella pneumonia; 1 mM): 0 millimeters
7 | Clc1ccc(CCc2nnc(-c3nc4ccccc4s3)o2)c(Cl)c1 [HGN-824] | 0 millimeters | 0 millimeters | 0 | 0 | 0 | 0 | 0 | 0 | 0 | 0 | 10 | 0 | 12 | 18 | 0 | 0 | 0 | 0 | 0 | 0 | Antibacterial Ec zone of inhibition (Escherichia coli; 1 mM): 0 millimeters; Antibacterial Bt zone of inhibition ([1]; 0.1 mM): 0 millimeters; Antibacterial Bt zone of inhibition ([1]; 0.5 mM): 0 millimeters; Antibacterial Bt zone of inhibition ([1]; 1 mM): 0 millimeters; Antibacterial Kp zone of inhibition (Klebsiella pneumonia; 0.1 mM): 0 millimeters; Antibacterial Kp zone of inhibition (Klebsiella pneumonia; 0.5 mM): 0 millimeters; Antibacterial Kp zone of inhibition (Klebsiella pneumonia; 1 mM): 0 millimeters
